Source: ChEMBL document CHEMBL1201862, “PubChem BioAssay data set” (2004)
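Protocol summary: plate cells (96-well), add compound at 5 concentrations, incubate 48 h, interpolate endpoints linearly. Here, GI50 denotes the concentration required for 50% inhibition of growth.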 Activity calls are given as the source filed them. No stated cut-off is given here; in the data, active = GI50 up to about 1.1 µM and inactive = higher.

Legend:
Assay in all cases: NCI-60 cell line screen, 48 h
DMS-114 = system: DMS-114
SNB-78 = system: SNB-78
RXF 631 = system: RXF 631
M19-MEL = system: M19-MEL
XF498 = system: XF498
DLD-1 = system: DLD-1
KM-20L2 = system: KM-20L2

Measured: GI50

CC(=O)CN(Cc1cc(C)c2c(c1)c1ccccc1n2Cc1ccccc1)S(=O)(=O)c1ccc(C)cc1
inactive: DMS-114 > 100 µM | SNB-78 > 100 µM | RXF 631 > 100 µM | M19-MEL > 100 µM | XF498 > 100 µM | DLD-1 > 100 µM

C=C1C(=O)C23[C@H](O)C1CC[C@H]2[C@]12COC3(O)[C@@H](O)[C@@H]1C(C)(C)CC[C@@H]2O
inactive: DMS-114 7.38 µM | SNB-78 3.44 µM | RXF 631 10.1 µM | KM-20L2 13.7 µM | M19-MEL 12.9 µM | XF498 3.46 µM | DLD-1 11.3 µM

COc1cccc(N2C(=O)C3C4C=C5c6ccccc6N(c6ccccc6)C5(C3C2=O)[C@H]2C(=O)N(c3cccc(OC)c3)C(=O)[C@@H]42)c1 (some centres not stated)
inactive: DMS-114 > 100 µM | SNB-78 > 100 µM | RXF 631 > 100 µM | KM-20L2 > 100 µM | M19-MEL > 100 µM | XF498 > 100 µM | DLD-1 > 100 µM

CC(=O)NC(CCCCNC(=O)N(CCCl)N=O)C(=O)NCc1ccccc1 (configuration not stated)
inactive: DMS-114 > 100 µM | RXF 631 > 100 µM | KM-20L2 > 100 µM | M19-MEL > 100 µM | XF498 > 100 µM | DLD-1 > 100 µM

CC(=O)n1c2c(c(=O)n1-c1ccccc1)[S+]([O-])CCC2 (configuration not stated)
inactive: DMS-114 35.9 µM | SNB-78 85.9 µM | RXF 631 97.1 µM | KM-20L2 > 71.6 µM | M19-MEL 29.6 µM | XF498 > 76.7 µM | DLD-1 48 µM

CC(CNCCCNCCNCCCNCO)[N+](=O)[O-] (configuration not stated)
inactive: DMS-114 16.6 µM | SNB-78 20.6 µM | RXF 631 16 µM | KM-20L2 16.9 µM | XF498 16.1 µM | DLD-1 3.63 µM

CCOC(=O)C1Cc2c(ccc(OC)c2OC)C(=O)C1N (configuration not stated)
inactive: DMS-114 > 100 µM | SNB-78 > 100 µM | RXF 631 > 100 µM | KM-20L2 > 100 µM | M19-MEL > 100 µM | XF498 > 100 µM | DLD-1 > 100 µM

O=C(O/N=C1/CCC/C1=C\c1ccccc1)c1ccc([N+](=O)[O-])cc1
inactive: DMS-114 > 100 µM | SNB-78 > 100 µM | RXF 631 > 100 µM | KM-20L2 > 100 µM | M19-MEL 15.5 µM | DLD-1 > 100 µM
